In US10752635B2, “Indazole compounds and uses thereof” (Incyte Corporation, priority 2018, dated 2020):

Target: HPK1 (Homo sapiens (Human), UniProt Q92918)
Assay: HPK1 Kinase Binding Assay
Conditions: active HPK1 (SignalChem M23-11G), tracer 222, LanthaScreen Eu-Anti GST antibody, one hour at 25° C.
Procedure: A stock solution of 1 mM test compound was prepared in DMSO. The compound plate was prepared by 3-fold and 11-point serial dilutions. 0.1 μL of the compound in DMSO was transferred from the compound plate to the white 384 well polystyrene plates. The assay buffer contained 50 mM HEPES, pH 7.5, 0.01% Tween-20, 5 mM MgCl2, 0.01% BSA, and 5 mM DTT. 5 μL of 4 nM active HPK1 (SignalChem M23-11G) prepared in the buffer was added to the plate. The enzyme concentration given was based on the given stock concentration reported by the vender. […] After one hour incubation at 25° C., the plates were read on a PHERAstar FS plate reader (BMG Labtech). Ki values were determined.

Chain of HPK1 (Q92918 1-346 limits assumed): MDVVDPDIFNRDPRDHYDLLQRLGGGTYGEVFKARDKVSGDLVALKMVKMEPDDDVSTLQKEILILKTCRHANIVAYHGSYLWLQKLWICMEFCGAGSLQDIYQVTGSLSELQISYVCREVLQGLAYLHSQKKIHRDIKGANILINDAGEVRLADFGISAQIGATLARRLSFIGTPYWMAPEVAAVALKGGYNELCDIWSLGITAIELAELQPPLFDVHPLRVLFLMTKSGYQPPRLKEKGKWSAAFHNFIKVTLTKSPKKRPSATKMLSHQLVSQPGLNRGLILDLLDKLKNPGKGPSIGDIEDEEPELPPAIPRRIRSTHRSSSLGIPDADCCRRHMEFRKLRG

Ki, < 100 nM:
CNC(=O)c1cc(NC(=O)c2ccnc(-c3c(F)cccc3OC)n2)c(N2CCC[C@@H](N)C2)c2cnn(C)c12 (single isomer, unassigned; peak 2) [16, Peak 2]
COc1cccc(F)c1-c1nccc(C(=O)Nc2cc(F)c3c(cnn3CCF)c2N2C[C@@H]3C[C@H]2CN3)n1 [Example 36, N-(4-((1S,4S)-2,5-Diazabicyclo[2.2.1]heptan-2-yl)-7-fluoro-1-(2-fluoroethyl)-1H-indazol-5-yl)-2-(2-fluoro-6-methoxyphenyl)pyrimidine-4-carboxamide]
COc1cccc(F)c1-c1nccc(C(=O)Nc2cc(F)c3c(cnn3C)c2N2CCC3(CCNC3=O)C2)n1 (single isomer, unassigned; peak 2) [8, Peak 2]
COCCn1ncc2c(N3C[C@@H](N)C[C@H]3CO)c(NC(=O)c3cccc(-c4c(F)cccc4OC)n3)cc(F)c21 [Example 42, N-(4-((2S,4S)-4-Amino-2-(hydroxymethyl)pyrrolidin-1-yl)-7-fluoro-1-(2-methoxyethyl)-1H-indazol-5-yl)-6-(2-fluoro-6-methoxyphenyl)picolinamide]
COc1cccc(F)c1-c1nccc(C(=O)Nc2ccc3c(c(I)nn3C)c2N2CCC(N(C)C)CC2)n1 [Example 27, N-(4-(4-(Dimethylamino)piperidin-1-yl)-3-iodo-1-methyl-1H-indazol-5-yl)-2-(2-fluoro-6-methoxyphenyl)pyrimidine-4-carboxamide]
COc1cccc(F)c1-c1nccc(C(=O)Nc2cc(F)c3nn(C)cc3c2N2CCC3(CCNC3=O)C2)n1 (single isomer, unassigned; peak 1) [8, Peak 1]
COc1cccc(F)c1-c1nccc(C(=O)Nc2cc(F)c3c(cnn3C)c2N2CCOCC2)n1 [7, Peak 2]
COc1cccc(F)c1-c1nccc(C(=O)Nc2cc(C#N)c3nn(C)cc3c2N2CCC[C@@H](N)C2)n1 (single isomer, unassigned; peak 1) [15, Peak 1]
COCCn1ncc2c(N3C[C@@H](N)C[C@H]3CO)c(NC(=O)c3ccnc(-c4c(OC)ccc(-c5cnn(C)c5)c4F)n3)cc(F)c21 [Example 40, N-(4-((2S,4S)-4-Amino-2-(hydroxymethyl)pyrrolidin-1-yl)-7-fluoro-1-(2-methoxyethyl)-1H-indazol-5-yl)-2-(2-fluoro-6-methoxy-3-(1-methyl-1H-pyrazol-4-yl)phenyl)pyrimidine-4-carboxamide]
COc1cccc(F)c1-c1nccc(C(=O)Nc2cc(F)c3c(cnn3C)c2N(C)[C@@H]2CCCNC2)n1 [Example 41, (R)—N-(7-Fluoro-1-methyl-4-(methyl(piperidin-3-yl)amino)-1H-indazol-5-yl)-2-(2-fluoro-6-methoxyphenyl)pyrimidine-4-carboxamide]
